In patent US10874637B2, “Methods and pharmaceutical compositions for the treatment of neurodegeneration with brain iron accumulation” (INSERM (Institut National de la Santé et de la Recherche …, priority 2016, dated 2020):
“Also recorded” adds a separate entry of the source.

What was measured:
iron amount = conditions: treatment increasing TfR1 palmitoylation; cited from earlier work
ferritin (FTH) = assay: Western blot of ferritin (FTH) steady state levels in fibroblasts; format: cell-based, human; conditions: control and NBIA fibroblasts, artesunate treatment (25 μM, 48 h)
Procedure: Skin fibroblasts were isolated from patients 1-2 and from four NBIA patients carrying biallelic PANK2, PLA2G6, C19ORF12 and FA2H mutations (Supplementary Table 2). Fibroblasts were grown in DMEM (Life technologies) medium supplemented with 10% fetal beef serum (FBS), 2 mM L-glutamine, 2.5 mM pyruvate, 100 μg/ml streptomycin, 100 U/ml penicillin at 37° C. For treatment with ferric ammonium citrate (FAC), 90% confluent cells were incubated for 72 h with or without 100 μM FAC in serum-free DMEM (i.e. Tf free). HeLa cells were grown in the same medium. Cultured skin fibroblasts or HeLa cells were harvested on ice by scraping in reducing or non-reducing cell lysis buffer. SDS-PAGE was performed on whole-cell protein extracts. Immunodetections were performed in PBS with 5% milk, 0.05 Tween20 (SIGMA) using the following antibodies: rabbit anti-CRAT (HPA022815, Sigma), rabbit anti-ACOT8 (SAB4500009 SIGMA), mouse anti-REPS1 (ab69221), mouse anti-SOD1 (ab86454), mouse anti-TfR1 (Zymed 136890), rabbit anti-ferritin (ab75973), rabbit anti-IRP1 (ab126595), rabbit anti-IRP2 (ab80339), mouse anti-GRIM19 (ab110240), rabbit anti-catalase (ab16731), rabbit anti-FBXLS (ab140175), rabbit anti-LC3B (ab51520) and mouse anti-actin antibodies (ab8226). […]

liver and ovarian cancer = conditions: via induction of TfR1 palmitoylation and reduction of its cell-surface levels; cited from earlier work
TfR1 = TfR1 palmitoylation assay in cultured skin fibroblasts (fatty acyl exchange chemistry); format: cell-based, human; conditions: control and NBIA fibroblasts, 25 μM artesunate for 48 h
Procedure: Skin fibroblasts were isolated from patients 1-2 and from four NBIA patients carrying biallelic PANK2, PLA2G6, C19ORF12 and FA2H mutations (Supplementary Table 2). Fibroblasts were grown in DMEM (Life technologies) medium supplemented with 10% fetal beef serum (FBS), 2 mM L-glutamine, 2.5 mM pyruvate, 100 μg/ml streptomycin, 100 U/ml penicillin at 37° C. For treatment with ferric ammonium citrate (FAC), 90% confluent cells were incubated for 72 h with or without 100 μM FAC in serum-free DMEM (i.e. Tf free). HeLa cells were grown in the same medium. TfR1 palmitoylation in cultured skin fibroblasts was modified from^15. Briefly, cells were lysed on ice in a DTT-free cell lysis buffer and endogenous TfR1 was immunoprecipitated with mouse anti-TfR1 antibody (Zymed) with protein G magnetic beads (Biorad). After washing with PBS, beads were incubated overnight with 50 mM N-ethylmaleimide (NEM) at 4° C., washed 3 times with PBS and then incubated with 1 M hydroxylamine (HA) at room temperature for 2 hours. After three washes, the beads were incubated with 50 mM HPDP-Biotin (Thermo) in dark for 2 hours. Biotin-labeled TfR1 level was determined by immunoblotting in non-reducing conditions using a goat anti-biotin antibody (Thermo) while immunoblotting with rabbit anti-TfR1 antibody (Abcam) was used as loading control.

| Molecule | iron amount (iron amount) | ferritin (FTH) steady state levels (indicator of iron content) (ferritin (FTH)) | liver and ovarian cancer growth (liver and ovarian cancer) | TfR1 palmitoylation (TfR1) |
| --- | --- | --- | --- | --- |
| dihydroartesunate | reduces iron amount | – | – | – |
| C[C@H]1[C@H](OC(=O)CCC(=O)O)O[C@@H]2O[C@@]3(C)CC[C@H]4[C@H](C)CC[C@@H]1[C@@]24OO3 [artesunate, (3R,5aS,6R,8aS,9R,10S,12R,12aR)-Decahydro-3,6,9-trimethyl-3,12-epoxy-12H-pyrano [4,3-j]-1,2-benzodioxepin-10-ol, hydrogen succinate] | – | decreased ferritin steady state level | inhibit liver and ovarian cancer growth | enhanced TfR1 palmitoylation; also recorded: improved TfR1 palmitoylation |
